Patent EP0093488A2, “Nortropyl benzopyrrolinone compounds, process for their preparation and pharmaceutical compositions containing them” (BEECHAM GROUP PLC, priority 1982, dated 1983)

tested on: post-synaptic Dopamine (D.A.) receptors; test: Inhibition of apomorphine induced climbing in the mouse; assay type: in vivo; conditions: dose for 50% inhibition of apomorphine (1 mg/kg s.c.) induced climbing, male CD1 mice, ½ hour post dosing po; 30 min

| Compound | ED50 [mg/kg] |
| --- | --- |
| 4-Chloro- and 6-Chloro-5-amino-2-(3β-N-(9-(4^1-methylbenzyl) -9-azabicyclo[3.3.1]nonyl)]phthalimidine [Compound E8] | 0.5 |
| Cc1ccc(CN2[C@@H]3CCC[C@H]2C[C@H](N2Cc4ccccc4C2=O)C3)cc1 [Compound E1] | 1.1 |
| Cc1ccc(CN2[C@@H]3CCC[C@H]2C[C@H](N2Cc4cc(Cl)ccc4C2=O)C3)cc1 [Compound E2] | 0.5 |
| O=C1c2ccc(Cl)cc2CN1[C@@H]1C[C@H]2CCC[C@@H](C1)N2Cc1ccc(F)cc1 [Compound E3] | 1.2 |
| Nc1ccc2c(c1)CN([C@@H]1C[C@H]3CCC[C@@H](C1)N3Cc1ccc(F)cc1)C2=O [Compound E5, 5-Amino-2-(3β-N-(9-(4^1-fluorobenzyl)-9-azabicyclo[3.3.1]nonyl)]phthalimidine] | 0.6 |
| Cc1ccc(CN2[C@@H]3CCC[C@H]2C[C@H](N2Cc4cc(N)ccc4C2=O)C3)cc1 [Compound E6, 5-Amino-2-[3β-N-(9-(4^1-methylbenzyl)-9-azabicyclo[3.3.1]nonyl)]phthalimidine] | 0.3 |

same assay, conditions: subcutaneous dosing; dose for 50% inhibition of apomorphine (1 mg/kg s.c.) induced climbing, male CD1 mice; 30 min

| Compound | ED50 |
| --- | --- |
| CN(C)S(=O)(=O)c1ccc2c(c1)C(=O)N([C@@H]1C[C@H]3CC[C@@H](C1)N3Cc1ccccc1)C2 [Compound E9, 6-Dimethylaminosulphonyl-2-N-[3β(8-benzyl-8-azabicyclo [3.2.1]octyl)]phthalimidine] | 3.0 (subcutaneous dosing) mg/kg |
